Values joined by “and” are separate entries in the source; they are usually repeats but may differ in a detail not shown here. Identical values can stand only once. Like-named read-outs stand apart in the source and are kept apart here. *1 amine or outer side, *2 acyl side, *3 side chain or, on linkers, in order; H or OH if unused. Where a SMILES comes first, the peptide text is derived from it. Bridges are numbered along the chain shown (N, C = ends). [ ]: non-standard residue; d: D form. Adda = CO[C@@H](Cc1ccccc1)[C@@H](C)/C=C(C)/C=C/[C@H](N[*:1])[C@H](C)C(=O)[*:2]; dAsp(3S-Me) = C[C@H](C(=O)[*:3])[C@@H](N[*:1])C(=O)[*:2]; d(γGlu) = O=C(O)[C@@H](CCC(=O)[*:2])N[*:1]; hTyr = N[C@@H](CCc1ccc(O)cc1)C(=O)O; NMeA = CN[C@@H](C)C(=O)O; NMeDha = C=C(NC)C(=O)O; CO = O=C([*:1])[*:2]
Experiments:
[1] = molecular target: T1, Ser/Thr protein phosphatase type-2A (PP2A) (Bos taurus, UniProt P67774); test: Colorimetric protein phosphatase inhibition assay, p-nitrophenyl phosphate substrate; assay type: biochemical, bovine
T1 construct: PP2A; from bovine kidney; purchased Sigma P1868; host or cells: bovine kidney (tissue-purified)
Description: The inhibition of Ser/Thr protein phosphatases by the CCPs was measured using the colorimetric inhibition assay described by An and Carmichael and Gkelis et al., with some modifications. […] Enzymes, PP1 and PP2A, were diluted in reaction buffer #1 (50 mM Tris-HCl, 1.0 g/L bovine serum albumin, 1.0 mM MnCl2, 2.0 mM dithiothreitol, pH 7.4), and p-nitrophenyl phosphate was prepared in substrate buffer (0.1 M glycine, pH 10.4, 1 mM MgCl2, 1 mM ZnCl2). The assay was performed by the addition of each CCP (as a potential inhibitor; final concentrations, 0.1, 1, 10, and 100 µM) to the enzyme solution (i.e., PP1 and PP2A; final concentrations, 1 U/well and 0.01 U/well, respectively, where 1 U hydrolyzes 1 nmole of substrate per minute at pH 7.4 at 30 °C). After a few seconds of gentle shaking, the microplate was kept at room temperature for 5 min, followed by the addition of reaction buffer #2 (50 mM Tris-HCl, 0.5 g/L bovine serum albumin, 0.2 mM MnCl2, 20 mM MgCl2, and pH 8.1) for PP1, or reaction buffer #1 for PP2A. The reactions were started by the addition of p-nitrophenyl phosphate (final concentrations, 15 mM for PP1 and 10 mM for PP2A) and were carried out for 120 min at 37 °C. The hydrolysis of p-nitrophenyl phosphate to […] was recorded at 405 nm using a microplate reader (Tecan, Austria). The inhibition percentages (X) were calculated from the absorbances of the samples after incubation for 30 min, as according to Equation (1):X (%) = (APP − AS)/APP × 100,(1) where APP is the absorbance of the control sample (i.e., enzyme only), and AS is the absorbance of the test sample (i.e., enzyme with potential inhibitor). […] All measurements were repeated a minimum of three independent times, with five technical replicates per experiment. IC50 values are expressed as means ± SD.

[2] = tested on: NHAs (normal human astrocytes); test: MTT metabolic activity / cell viability; assay type: cell-based
Description: Normal human astrocytes (NHAs; Lonza, Walkersville, MD, USA) were grown and maintained in monolayer cultures in Dulbecco’s modified Eagle’s medium (DMEM; Sigma) supplemented with 10% fetal bovine serum (Euroclone, Pero, MI, Italy), 1% penicillin/streptomycin (Euroclone), 2 mM L-glutamine (Euroclone), and 20 mM Hepes (Invitrogen, Carlsbad, CA, USA). The U87-MG human glioblastoma cells (U87-MG cells; American Type Culture Collection, Manassas, VA, USA) were grown and maintained in monolayer cultures in DMEM supplemented with 10% fetal bovine serum, 1% penicillin/streptomycin, 4 mM L-glutamine, and 1% non-essential amino acids (Sigma).
Cell viability was determined using the 3-(4,5-dimethylthiazolyl-2)-2,5-diphenyltetrazolium bromide (MTT) assay, as according to Mosmann. This assay measures the conversion of MTT to its insoluble formazan by the dehydrogenase enzymes of the intact mitochondria of living cells. […]; Nunclon; Nunc, Naperville, IL, USA) and incubated for 16 h at 37 °C for attachment. The cell-growth medium was then replaced by fresh medium containing 0, 0.1, 1, and 10 µM of each CCP and incubated for an additional 24 h. These experiments were performed without using dimethylsulphoxide to best retain the original permeability of the cell membranes. Each experiment included the negative control of cell-growth medium with no additions. Following incubation (CO2 incubator), 20 μL 5 mg/mL MTT was added to each well. The plates were incubated for another 3 h. […] The amount of formazan, which is proportional to the metabolic activity of cells, was quantified spectrophotometrically at 570 nm (reference filter wavelength, 690 nm) using a microplate reader (Synergy MX; BioTek, Winooski, VT, USA). The metabolic activity of the cells was determined by comparing the optical densities of the CCP-treated cells with those of the negative control. Five replicates per concentration and three independent experiments were performed. Student’s t-tests were used to analyze the differences between the treated and control cells using Prism 5 software (GraphPad, Inc., La Jolla, CA, USA), where p < 0.05 was considered to be statistically significant.

ACTB = test: Gene expression by quantitative real-time PCR in NHA; assay type: cell-based, human
Description: (§1) Cells were seeded onto 6-well plates, left to attach for 16 h, and treated with each non-hCCP separately (0.1–10 µM) and the hepatotoxic MC-LR (0.01–1 µM) for 24 h at 37 °C in the CO2 incubator. The total RNA from the cells (0.5–1.0 × 10^6 cells) was isolated using the TRIzol reagent (Invitrogen), and the cDNA was synthesized using 1 μg total RNA with cDNA high-capacity archive kits (Applied Biosystems, Foster City, CA, USA), according to the manufacturer’s protocol.
(§2) The expression levels of TUBA1A, ACTB, NES, and GFAP were quantified using quantitative real-time PCR (ABI 7900 HT Sequence Detection System; Applied Biosystems). TaqMan Universal PCR Master Mix and the following TaqMan Gene Expression Assays were used: TUBA1A: tubulin, alpha 1a, Hs00362387_m1; ACTB: actin, beta, Hs99999903_m1; NES, nestin, Hs00707120_s1; and GFAP, glial fibrillary acidic protein, and Hs00157674_m1 (all from Applied Biosystems). Amplification of a glyceraldehyde 3-phosphate dehydrogenase probe GAPDH (Human Endogenous Controls, Cat. # 4310884E; Applied Biosystems) was performed as an internal control. The conditions for the quantitative real-time PCR were as follows: 50 °C for 2 min, 95 °C for 10 min, 40 cycles of 95 °C for 15 s, and 60 °C for 1 min.
(§3) The data obtained from the TaqMan Gene Expression Assays were analyzed using the ΔΔCt algorithm. Two replicates per concentration and three independent experiments were performed. The statistical significance between the controls and the treated groups was determined using two-tailed Student’s t-tests, where p < 0.05 was statistically significant. In addition, the relative expression was normalized to the housekeeping gene GAPDH (relative quantification), with at least three sample concentrations used for each gene in both untreated cell lines.

GFAP = test: as above; assay type: cell-based, human
Description: as §1, §2, §3

NES = test: as above; assay type: cell-based, human
Description: as §1, §2, §3

TUBA1A = test: as above; assay type: cell-based, human
Description: as §1, §2, §3

[3] = means ± SD, p-nitrophenyl phosphate 10 mM
[4] = NHA, 0.1 µM CCP, 24 h, relative to non-treated control
[5] = NHA, 1 µM CCP, 24 h, relative to non-treated control
[6] = NHA, 10 µM CCP, 24 h, relative to non-treated control

T1 sequence (P67774 whole entry): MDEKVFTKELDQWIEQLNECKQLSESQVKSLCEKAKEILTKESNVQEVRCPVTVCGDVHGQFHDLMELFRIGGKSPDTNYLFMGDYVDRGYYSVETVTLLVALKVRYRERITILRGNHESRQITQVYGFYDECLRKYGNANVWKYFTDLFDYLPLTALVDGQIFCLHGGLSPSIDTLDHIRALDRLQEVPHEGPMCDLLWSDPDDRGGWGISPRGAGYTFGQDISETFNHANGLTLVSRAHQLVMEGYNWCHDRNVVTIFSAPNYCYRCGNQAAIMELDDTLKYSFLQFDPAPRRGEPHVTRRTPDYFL

Row | SMILES | IC50 [1, 3] [µM] | metabolic activity vs control ([2]; NHAs, up to 10 µM, 24 h) | Changes in gene expression of ACTB (ACTB; [4]) | Changes in gene expression of ACTB (ACTB; [5]) | Changes in gene expression of ACTB (ACTB; [6]) | Changes in gene expression of GFAP (GFAP; [4]) | Changes in gene expression of GFAP (GFAP; [5]) | Changes in gene expression of GFAP (GFAP; [6]) | Changes in gene expression of NES (NES; [4]) | Changes in gene expression of NES (NES; [5]) | Changes in gene expression of NES (NES; [6]) | Changes in gene expression of TUBA1A (TUBA1A; [4]) | Changes in gene expression of TUBA1A (TUBA1A; [5]) | Changes in gene expression of TUBA1A (TUBA1A; [6]) | other results
1 | CC[C@H](C)[C@@H]1NC(=O)[C@H](Cc2ccc(OC)cc2)N(C)C(=O)[C@H]([C@@H](C)O)N2C(=O)[C@H](CC[C@H]2O)NC(=O)[C@H](CC(C)C)NC(=O)[C@@H](NC(=O)[C@H](CCC(N)=O)NC(=O)[C@H](CCc2ccc(O)cc2)NC(=O)[C@@H](O)CO)[C@@H](C)OC1=O | 18.2 ± 15.7 | no significant changes from the control | 0.949 ± 0.140 | 0.988 ± 0.147 | 1.162 ± 0.251 | 1.051 ± 0.351 | 0.947 ± 0.101 | 1.119 ± 0.240 | 1.262 ± 0.077 | 1.203 ± 0.196 | 1.370 ± 0.208 | 0.940 ± 0.162 | 0.824 ± 0.128 | 1.000 ± 0.141 | 
2 | C=C1C(=O)N[C@H](C)C(=O)N[C@@H](CC(C)C)C(=O)N[C@@H](C(=O)O)[C@H](C)C(=O)N[C@@H](CCCNC(=N)N)C(=O)N[C@@H](/C=C/C(C)=C/[C@H](C)[C@H](Cc2ccccc2)OC)[C@H](C)C(=O)N[C@@H](C(=O)O)CCC(=O)N1C [MC-LR, Microcystin-LR, reference compound] (R[Adda][d(γGlu)][NMeDha][dA]L[dAsp(3S-Me)]-OH; lactam N-7) |  |  |  |  |  |  |  |  |  |  |  |  |  |  | IC50 [1]: 4.8e-05 ± 1e-05 µM; metabolic activity vs control [2]: significantly decreased; cytotoxicity ([2]; 10 µM, read-out: cell viability lower than the control): ~20%; Changes in gene expression of ACTB (ACTB): 1.866 ± 0.844 and 1.071 ± 0.437; Changes in gene expression of GFAP (GFAP): 1.395 ± 0.312 and 1.453 ± 0.279; Changes in gene expression of NES (NES): 0.917 ± 0.067 and 1.266 ± 0.250; Changes in gene expression of TUBA1A (TUBA1A): 0.957 ± 0.046 and 0.941 ± 0.025
3 | CC(C)[C@@H]1NC(=O)[C@H](NC(=O)N[C@@H](CCCNC(=N)N)C(=O)O)CCCCNC(=O)[C@H](Cc2ccccc2)NC(=O)[C@H](C)N(C)C(=O)[C@H](CCc2ccc(O)cc2)NC1=O [anabaenopeptin B] ({Arg-CO}-[dK]V[hTyr][NMeA]F; lactam 1-C) | 12.3 ± 6.1 | no significant changes from the control | 1.175 ± 0.386 | 0.935 ± 0.157 | 0.934 ± 0.166 | 1.053 ± 0.124 | 1.434 ± 0.180 | 0.918 ± 0.204 | 1.361 ± 0.291 | 1.221 ± 0.338 | 1.388 ± 0.313 | 1.082 ± 0.219 | 0.807 ± 0.100 | 0.895 ± 0.119 | 
4 | CC[C@H](C)[C@@H]1NC(=O)[C@H](NC(=O)N[C@@H](CCCNC(=N)N)C(=O)O)CCCCNC(=O)[C@H](Cc2ccccc2)NC(=O)[C@H](C)N(C)C(=O)[C@H](CCc2ccc(O)cc2)NC1=O [anabaenopeptin F] ({Arg-CO}-[dK]I[hTyr][NMeA]F; lactam 1-C) | 1 ± 0.2 | no significant changes from the control | 0.824 ± 0.227 | 1.121 ± 0.167 | 0.890 ± 0.184 | 1.326 ± 0.507 | 0.846 ± 0.211 | 1.167 ± 0.250 | 1.345 ± 0.205 | 1.449 ± 0.171 | 1.381 ± 0.173 | 0.941 ± 0.186 | 1.144 ± 0.291 | 0.826 ± 0.036 | 

From PMC11436104 (Toxins, 2024)
